Test results from patent US7118895B2, “Process for producing aglycon by using diglycosidase and flavor-improved food containing the aglycon and converting agent to be used in the process” (Amano Enzyme Inc., priority 2000, dated 2006).
Each block holds one compound with its values, some of them ahead of it.

Tested on: Crude diglycosidase
Assay: Examination of substrate concentration in the conversion into isoflavone aglycons by diglycosidase using soybean materials;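 also: percent of the isoflavone family total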
Type: biochemical, Penicillium multicolor IAM7153
Procedure: Into 20 mM acetate buffer of pH 4.0 was suspended 0.1 g, 0.25 g, 0.5 g, 1.0 g, or 1.5 g of each of various soybean materials (roasted soy flour (manufactured by Fuji Shokuryo K.K.), soymilk (manufactured by Gitoh Shokuhin K.K.), defatted soybean (manufactured by Fuji Seiyu K.K.), concentrated soybean protein (manufactured by Fuji Seiyu K.K.)). The pH of the suspension was measured and the liquid volume was adjusted to 4.5 mL while the pH was adjusted to 4.0 with 1N hydrochloric acid. An enzyme solution wherein diglycosidase activity of crude diglycosidase was adjusted to 1.88 AU/mL was added thereto in an amount of 0.5 mL, whereby the final liquid volume was 5.0 mL. Namely, the ratio of the soybean material in the reaction mixture was 2%, 5%, 10%, 20%, or 30% (w/v). The whole was reacted at 55° C. under shaking. To 5 mL of the reaction mixture was added 7 mL of ethanol after 0, 1, 3, and 6 hours of the reaction. After ultrasonication, the mixture was thoroughly mixed. It was subjected to centrifugal separation at 2,000 rpm and room temperature for 5 minutes. Then, […] of the supernatant was placed in a 1.5 mL microtube and was subjected to centrifugal separation at 15,000 rpm and 4° C. for 10 minutes. The supernatant was filtered through a filter and each sample was suitably diluted by a factor of 1 to 6 depending on the substrate concentration. Fifty μL of the diluted solution was analyzed by HLPC (Tables 27 to 38).

[1] = soymilk, substrate concentration 2%, heat treatment of enzyme no, reaction time 0 h
[2] = soymilk, substrate concentration 2%, heat treatment of enzyme no, reaction time 1 h
[3] = soymilk, substrate concentration 2%, heat treatment of enzyme no, reaction time 3 h
[4] = soymilk, substrate concentration 2%, heat treatment of enzyme no, reaction time 6 h
[5] = soymilk, substrate concentration 2%, heat treatment of enzyme yes, reaction time 6 h
[6] = soymilk, substrate concentration 5%, heat treatment of enzyme no, reaction time 0 h
[7] = soymilk, substrate concentration 5%, heat treatment of enzyme no, reaction time 1 h
[8] = soymilk, substrate concentration 5%, heat treatment of enzyme no, reaction time 3 h
[9] = soymilk, substrate concentration 5%, heat treatment of enzyme no, reaction time 6 h
[10] = soymilk, substrate concentration 5%, heat treatment of enzyme yes, reaction time 6 h
[11] = soymilk, substrate concentration 10%, heat treatment of enzyme no, reaction time 0 h
[12] = soymilk, substrate concentration 10%, heat treatment of enzyme no, reaction time 1 h
[13] = soymilk, substrate concentration 10%, heat treatment of enzyme no, reaction time 3 h
[14] = soymilk, substrate concentration 10%, heat treatment of enzyme no, reaction time 6 h
[15] = soymilk, substrate concentration 10%, heat treatment of enzyme yes, reaction time 6 h
[16] = soymilk, substrate concentration 20%, heat treatment of enzyme no, reaction time 0 h
[17] = soymilk, substrate concentration 20%, heat treatment of enzyme no, reaction time 1 h
[18] = soymilk, substrate concentration 20%, heat treatment of enzyme no, reaction time 3 h
[19] = soymilk, substrate concentration 20%, heat treatment of enzyme no, reaction time 6 h
[20] = soymilk, substrate concentration 20%, heat treatment of enzyme yes, reaction time 6 h
[21] = soymilk, substrate concentration 30%, heat treatment of enzyme no, reaction time 0 h
[22] = soymilk, substrate concentration 30%, heat treatment of enzyme no, reaction time 1 h
[23] = soymilk, substrate concentration 30%, heat treatment of enzyme no, reaction time 3 h
[24] = soymilk, substrate concentration 30%, heat treatment of enzyme no, reaction time 6 h
[25] = soymilk, substrate concentration 30%, heat treatment of enzyme yes, reaction time 6 h

SMILES: CC(=O)OC[C@H]1O[C@@H](Oc2ccc3c(=O)c(-c4ccc(O)cc4)coc3c2)[C@H](O)[C@@H](O)[C@@H]1O [acetly-daidzin]
Decomposition efficiency: ratio of each glycoside/aglycon within its isoflavone family (concentrated soybean protein, substrate concentration 2%, heat treatment of enzyme no, reaction time 0 h): 44.0% | Decomposition efficiency: ratio of each glycoside/aglycon within its isoflavone family (concentrated soybean protein, substrate concentration 2%, heat treatment of enzyme no, reaction time 1 h): 17.8% | Decomposition efficiency: ratio of each glycoside/aglycon within its isoflavone family (concentrated soybean protein, substrate concentration 2%, heat treatment of enzyme no, reaction time 3 h): 5.3% | Decomposition efficiency: ratio of each glycoside/aglycon within its isoflavone family (concentrated soybean protein, substrate concentration 2%, heat treatment of enzyme no, reaction time 6 h): not detected | Decomposition efficiency: ratio of each glycoside/aglycon within its isoflavone family (concentrated soybean protein, substrate concentration 2%, heat treatment of enzyme yes, reaction time 6 h): 43.2% | Decomposition efficiency: ratio of each glycoside/aglycon within its isoflavone family (concentrated soybean protein, substrate concentration 5%, heat treatment of enzyme no, reaction time 0 h): 44.0% | Decomposition efficiency: ratio of each glycoside/aglycon within its isoflavone family (concentrated soybean protein, substrate concentration 5%, heat treatment of enzyme no, reaction time 3 h): 20.5% | Decomposition efficiency: ratio of each glycoside/aglycon within its isoflavone family (concentrated soybean protein, substrate concentration 5%, heat treatment of enzyme no, reaction time 6 h): 12.0% | Decomposition efficiency: ratio of each glycoside/aglycon within its isoflavone family (concentrated soybean protein, substrate concentration 5%, heat treatment of enzyme yes, reaction time 6 h): 43.0% | Decomposition efficiency: ratio of each glycoside/aglycon within its isoflavone family (concentrated soybean protein, substrate concentration 10%, heat treatment of enzyme no, reaction time 0 h): 44.2% | Decomposition efficiency: ratio of each glycoside/aglycon within its isoflavone family (concentrated soybean protein, substrate concentration 10%, heat treatment of enzyme no, reaction time 1 h): 39.7% | Decomposition efficiency: ratio of each glycoside/aglycon within its isoflavone family (concentrated soybean protein, substrate concentration 10%, heat treatment of enzyme no, reaction time 3 h): 32.9% | Decomposition efficiency: ratio of each glycoside/aglycon within its isoflavone family (concentrated soybean protein, substrate concentration 10%, heat treatment of enzyme no, reaction time 6 h): 26.9% | Decomposition efficiency: ratio of each glycoside/aglycon within its isoflavone family (concentrated soybean protein, substrate concentration 10%, heat treatment of enzyme yes, reaction time 6 h): 43.4% | Decomposition efficiency: ratio of each glycoside/aglycon within its isoflavone family (concentrated soybean protein, substrate concentration 20%, heat treatment of enzyme no, reaction time 0 h): 44.1% | Decomposition efficiency: ratio of each glycoside/aglycon within its isoflavone family (concentrated soybean protein, substrate concentration 20%, heat treatment of enzyme no, reaction time 3 h): 41.5% | Decomposition efficiency: ratio of each glycoside/aglycon within its isoflavone family (concentrated soybean protein, substrate concentration 20%, heat treatment of enzyme no, reaction time 6 h): 37.9% | Decomposition efficiency: ratio of each glycoside/aglycon within its isoflavone family (concentrated soybean protein, substrate concentration 20%, heat treatment of enzyme yes, reaction time 6 h): 44.0% | Decomposition efficiency: ratio of each glycoside/aglycon within its isoflavone family (concentrated soybean protein, substrate concentration 30%, heat treatment of enzyme no, reaction time 0 h): 49.2% | Decomposition efficiency: ratio of each glycoside/aglycon within its isoflavone family (concentrated soybean protein, substrate concentration 30%, heat treatment of enzyme no, reaction time 1 h): 56.6% | Decomposition efficiency: ratio of each glycoside/aglycon within its isoflavone family (concentrated soybean protein, substrate concentration 30%, heat treatment of enzyme no, reaction time 3 h): 49.9% | Decomposition efficiency: ratio of each glycoside/aglycon within its isoflavone family (concentrated soybean protein, substrate concentration 30%, heat treatment of enzyme no, reaction time 6 h): 42.8% | Decomposition efficiency: ratio of each glycoside/aglycon within its isoflavone family (concentrated soybean protein, substrate concentration 30%, heat treatment of enzyme yes, reaction time 6 h): 48.4%

SMILES: CC(=O)OC[C@H]1O[C@@H](Oc2ccc3c(=O)c(-c4ccc(O)cc4)coc3c2)[C@H](O)[C@@H](O)[C@@H]1O [acetyl-daidzin]
Decomposition efficiency: ratio of each glycoside/aglycon within its isoflavone family [1]: not detected | Decomposition efficiency: ratio of each glycoside/aglycon within its isoflavone family [2]: not detected | Decomposition efficiency: ratio of each glycoside/aglycon within its isoflavone family [3]: not detected | Decomposition efficiency: ratio of each glycoside/aglycon within its isoflavone family [4]: not detected | Decomposition efficiency: ratio of each glycoside/aglycon within its isoflavone family [5]: not detected | Decomposition efficiency: ratio of each glycoside/aglycon within its isoflavone family [6]: not detected | Decomposition efficiency: ratio of each glycoside/aglycon within its isoflavone family [7]: not detected | Decomposition efficiency: ratio of each glycoside/aglycon within its isoflavone family [8]: not detected | Decomposition efficiency: ratio of each glycoside/aglycon within its isoflavone family [9]: not detected | Decomposition efficiency: ratio of each glycoside/aglycon within its isoflavone family [10]: not detected | Decomposition efficiency: ratio of each glycoside/aglycon within its isoflavone family [11]: not detected | Decomposition efficiency: ratio of each glycoside/aglycon within its isoflavone family [12]: not detected | Decomposition efficiency: ratio of each glycoside/aglycon within its isoflavone family [13]: not detected | Decomposition efficiency: ratio of each glycoside/aglycon within its isoflavone family [14]: not detected | Decomposition efficiency: ratio of each glycoside/aglycon within its isoflavone family [15]: not detected | Decomposition efficiency: ratio of each glycoside/aglycon within its isoflavone family [16]: not detected | Decomposition efficiency: ratio of each glycoside/aglycon within its isoflavone family [17]: not detected | Decomposition efficiency: ratio of each glycoside/aglycon within its isoflavone family [18]: not detected | Decomposition efficiency: ratio of each glycoside/aglycon within its isoflavone family [19]: not detected | Decomposition efficiency: ratio of each glycoside/aglycon within its isoflavone family [20]: not detected | Decomposition efficiency: ratio of each glycoside/aglycon within its isoflavone family [21]: not detected | Decomposition efficiency: ratio of each glycoside/aglycon within its isoflavone family [22]: not detected | Decomposition efficiency: ratio of each glycoside/aglycon within its isoflavone family [23]: not detected | Decomposition efficiency: ratio of each glycoside/aglycon within its isoflavone family [24]: not detected | Decomposition efficiency: ratio of each glycoside/aglycon within its isoflavone family [25]: not detected

Decomposition efficiency: ratio of each glycoside/aglycon within its isoflavone family [1]: not detected | Decomposition efficiency: ratio of each glycoside/aglycon within its isoflavone family [2]: not detected | Decomposition efficiency: ratio of each glycoside/aglycon within its isoflavone family [3]: not detected | Decomposition efficiency: ratio of each glycoside/aglycon within its isoflavone family [4]: not detected | Decomposition efficiency: ratio of each glycoside/aglycon within its isoflavone family [5]: not detected | Decomposition efficiency: ratio of each glycoside/aglycon within its isoflavone family [6]: not detected | Decomposition efficiency: ratio of each glycoside/aglycon within its isoflavone family [7]: not detected | Decomposition efficiency: ratio of each glycoside/aglycon within its isoflavone family [8]: not detected | Decomposition efficiency: ratio of each glycoside/aglycon within its isoflavone family [9]: not detected | Decomposition efficiency: ratio of each glycoside/aglycon within its isoflavone family [10]: not detected | Decomposition efficiency: ratio of each glycoside/aglycon within its isoflavone family [11]: 0.5% | Decomposition efficiency: ratio of each glycoside/aglycon within its isoflavone family [12]: not detected | Decomposition efficiency: ratio of each glycoside/aglycon within its isoflavone family [13]: not detected | Decomposition efficiency: ratio of each glycoside/aglycon within its isoflavone family [14]: not detected | Decomposition efficiency: ratio of each glycoside/aglycon within its isoflavone family [15]: 0.5% | Decomposition efficiency: ratio of each glycoside/aglycon within its isoflavone family [16]: 0.6% | Decomposition efficiency: ratio of each glycoside/aglycon within its isoflavone family [17]: not detected | Decomposition efficiency: ratio of each glycoside/aglycon within its isoflavone family [18]: not detected | Decomposition efficiency: ratio of each glycoside/aglycon within its isoflavone family [19]: not detected | Decomposition efficiency: ratio of each glycoside/aglycon within its isoflavone family [20]: 0.6% | Decomposition efficiency: ratio of each glycoside/aglycon within its isoflavone family [21]: 0.6% | Decomposition efficiency: ratio of each glycoside/aglycon within its isoflavone family [22]: not detected | Decomposition efficiency: ratio of each glycoside/aglycon within its isoflavone family [23]: not detected | Decomposition efficiency: ratio of each glycoside/aglycon within its isoflavone family [24]: not detected | Decomposition efficiency: ratio of each glycoside/aglycon within its isoflavone family [25]: 0.6%
SMILES: CC(=O)OC[C@H]1O[C@@H](Oc2cc(O)c3c(=O)c(-c4ccc(O)cc4)coc3c2)[C@H](O)[C@@H](O)[C@@H]1O [acetyl-genistin]
